Assay results from ChEMBL document CHEMBL1201862, “PubChem BioAssay data set” (2004).
Activity calls are given as the source filed them.

Experiments:
[1] = HepG2 cell cytotoxicity, dose response, cytotoxicity control, cherry-picked samples (AID 1159577); assay type: functional, cell-based
[2] = P. falciparum Dd2 growth inhibitors, dose response, SYBR Green, cherry-picked samples (AID 1159567); assay type: functional, cell-based
[3] = target: T1, Corticotropin-releasing factor receptor 2/Corticotropin-releasing factor-binding protein (Homo sapiens, UniProt P24387+Q13324); test: Dose Response confirmation of uHTS hits for small molecule antagonists of the CRF-binding protein and CRF-R2 receptor complex.; assay type: functional; settings: read-out: IC50_Mean
T1 sequence (Q13324 whole entry): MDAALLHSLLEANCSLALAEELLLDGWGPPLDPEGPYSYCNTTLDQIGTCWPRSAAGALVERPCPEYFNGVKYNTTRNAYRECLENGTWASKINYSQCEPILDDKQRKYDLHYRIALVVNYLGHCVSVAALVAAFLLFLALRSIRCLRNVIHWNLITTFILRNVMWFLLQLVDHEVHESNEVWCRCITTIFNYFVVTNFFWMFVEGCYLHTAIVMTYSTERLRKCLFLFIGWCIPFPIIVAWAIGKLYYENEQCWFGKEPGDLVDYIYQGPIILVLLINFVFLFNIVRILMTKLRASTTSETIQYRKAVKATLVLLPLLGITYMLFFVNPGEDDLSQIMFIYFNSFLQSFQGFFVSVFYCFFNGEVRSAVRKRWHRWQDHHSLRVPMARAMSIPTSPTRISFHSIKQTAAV
T1 sequence (P24387 whole entry): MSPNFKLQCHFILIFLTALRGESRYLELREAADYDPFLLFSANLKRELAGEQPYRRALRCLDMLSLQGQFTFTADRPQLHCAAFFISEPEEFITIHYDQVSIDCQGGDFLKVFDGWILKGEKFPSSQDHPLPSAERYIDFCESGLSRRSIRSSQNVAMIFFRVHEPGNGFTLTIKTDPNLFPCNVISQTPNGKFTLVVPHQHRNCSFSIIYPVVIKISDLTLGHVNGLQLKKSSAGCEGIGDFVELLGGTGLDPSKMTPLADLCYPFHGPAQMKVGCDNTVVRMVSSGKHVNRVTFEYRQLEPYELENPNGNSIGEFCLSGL

[4] = CRF-BP/CRF-R2 complex antagonists, dose response, cell-based, uHTS hits, 384-well (AID 651639); assay type: functional, Homo sapiens; settings: read-out: IC50_Mean
[5] = target: T1, Corticotropin-releasing factor receptor 2/Corticotropin-releasing factor-binding protein; test: activators of CRF receptor 2 with binding protein – uHTS hits, confirmation (AID 602473); assay type: functional; settings: read-out: EC50_Mean
[6] = target: T2, High affinity choline transporter 1 (Homo sapiens, UniProt Q9GZV3); test: CHT inhibitors, dose response, cell-based, 5-point CRC, membrane potential dye (AID 504840); assay type: functional
T2 sequence (Q9GZV3 whole entry): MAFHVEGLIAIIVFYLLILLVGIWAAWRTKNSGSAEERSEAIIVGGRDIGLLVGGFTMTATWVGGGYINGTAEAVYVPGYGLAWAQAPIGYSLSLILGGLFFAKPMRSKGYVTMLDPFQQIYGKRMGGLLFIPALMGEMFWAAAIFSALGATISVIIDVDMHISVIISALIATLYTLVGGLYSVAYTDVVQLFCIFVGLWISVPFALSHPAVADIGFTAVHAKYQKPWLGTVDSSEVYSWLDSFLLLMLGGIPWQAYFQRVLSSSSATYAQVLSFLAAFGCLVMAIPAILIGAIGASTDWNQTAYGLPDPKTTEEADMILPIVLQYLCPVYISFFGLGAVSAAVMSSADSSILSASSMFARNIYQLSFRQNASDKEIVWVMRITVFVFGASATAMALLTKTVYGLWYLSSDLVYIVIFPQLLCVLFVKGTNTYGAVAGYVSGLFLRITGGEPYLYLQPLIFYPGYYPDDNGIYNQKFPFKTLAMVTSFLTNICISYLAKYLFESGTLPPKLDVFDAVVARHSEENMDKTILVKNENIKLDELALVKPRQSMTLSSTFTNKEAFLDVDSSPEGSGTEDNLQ

[7] = HeLa cell cytotoxicity, dose response, cytotoxicity control for MgcRacGAP inhibitor project (AID 624300); assay type: functional
Vero [8] = test: cells; assay type: functional, cell-based; settings: Chlorocebus sabaeus
[9] = target: T3, Rac GTPase-activating protein 1 (Homo sapiens, UniProt Q9H0H5); test: MgcRacGAP GTPase-activating activity inhibitors, confirmation, biochemical, ADP Hunter fluorescence, primary and confirmatory (AID 624330); assay type: functional
T3 sequence (Q9H0H5 whole entry): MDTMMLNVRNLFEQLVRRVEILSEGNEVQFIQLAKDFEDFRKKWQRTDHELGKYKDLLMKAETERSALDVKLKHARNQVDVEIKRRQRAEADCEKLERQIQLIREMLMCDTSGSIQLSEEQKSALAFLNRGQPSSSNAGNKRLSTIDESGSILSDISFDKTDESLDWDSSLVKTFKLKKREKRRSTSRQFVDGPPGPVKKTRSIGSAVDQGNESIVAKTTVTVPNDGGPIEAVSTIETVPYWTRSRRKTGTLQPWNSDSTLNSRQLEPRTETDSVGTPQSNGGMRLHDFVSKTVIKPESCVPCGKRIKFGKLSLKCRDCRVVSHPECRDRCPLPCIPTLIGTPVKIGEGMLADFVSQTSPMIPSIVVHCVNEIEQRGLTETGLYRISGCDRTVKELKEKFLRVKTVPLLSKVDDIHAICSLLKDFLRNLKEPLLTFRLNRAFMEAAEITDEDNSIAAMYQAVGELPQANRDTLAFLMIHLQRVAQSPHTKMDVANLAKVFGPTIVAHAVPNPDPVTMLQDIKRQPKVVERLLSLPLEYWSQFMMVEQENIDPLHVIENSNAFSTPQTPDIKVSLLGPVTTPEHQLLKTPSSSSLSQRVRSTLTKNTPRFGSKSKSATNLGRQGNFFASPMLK

[10] = C. albicans growth with fluconazole, confirmation, fluorescence, retest (AID 2467); assay type: functional, cell-based
HEK293 = test: inhibitors of LMP1-driven NF-kB reporter, dose response, cell-based, HEK293, luciferase, cherry-pick (AID 588343); assay type: functional; settings: Homo sapiens
[11] = NIH-3T3 fibroblast cytotoxicity, dose response, cytotoxicity control, cell-based, fluorescence, Alamar Blue, secondary assay (AID 2327); assay type: functional;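 note: NIH-3T3 mouse fibroblasts cultured with fluconazole at 8 µg/mL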
Vero [12] = test: cells; assay type: functional; settings: Chlorocebus sabaeus

OC[C@H]1[C@@H](c2ccc(/C=C/c3ccccc3)cc2)[C@@H]2CN(Cc3cncnc3)CCCCN12
AC50 [1]: 20.3 µM (active)
AC50 [2]: 4.13 µM (active)

Cc1ccc(-c2csc(Nc3ccc(C(=O)O)cc3)[n+]2Cc2ccccc2)cc1
IC50 [3]: 13 µM (active)
IC50 [4]: 16.5 µM (active)
EC50 [5]: > 53 µM (inactive)

COc1ccc(S(=O)(=O)N2CC[C@@H]3[C@H]2c2cc(C#Cc4ccccc4OC)ccc2N[C@@H]3CO)cc1
AC50 [1]: > 39 µM (inactive)
AC50 [2]: 11.3 µM (active)

CCCN1C(=O)c2ccccc2NC1c1ccc(OC)c(CSc2ccccn2)c1 (configuration not stated)
IC50 [3]: 46.2 µM (active)
IC50 [4]: > 20 µM (inactive)
EC50 [5]: > 53 µM (inactive)

Cc1ccccc1C(=O)c1cccn1CC(=O)NC(C)c1ccccc1 (configuration not stated)
IC50 [6]: 12.6 µM (active)

COc1cccc2c1C(=O)c1c(O)c3c(c(O)c1C2=O)C[C@@](O)(C(=O)CO)C[C@@H]3OC1CC(N)C(O)C(C)O1 (some centres not stated)
CC50 [7]: 23.5 µM (active)
IC50 (Vero [8]): > 25 µM (active)
IC50 [9]: 53.5 µM (active)

Brc1cccc(CSc2nnc(-c3ccncc3)o2)c1
EC50 [10]: > 38 µM (not active)
AC50 (HEK293): 47 µM (active)
EC50 [11]: 41.1 µM (active)

Cc1cc(C)cc(OC(C)C(=O)Nc2ccc(S(=O)(=O)Nc3cc(C)nc(C)n3)cc2)c1 (configuration not stated)
IC50 [6]: 13.2 µM (active)

Clc1ccc(-c2cc(C3CCNCC3)[nH]n2)c(Cl)c1
IC50 (Vero [8]): 24.8 µM (active)
CC50 (Vero [12]): > 25 µM (active)

C[C@@H]1CN([C@@H](C)CO)C(=O)Cc2cc(NC(=O)Nc3ccccc3)ccc2O[C@H]1CN(C)Cc1ccc2c(c1)OCO2
AC50 [1]: > 39 µM (inactive)
AC50 [2]: 3.97 µM (active)
